Laboratory results reported in US6710075B2, “Therapeutic compounds and methods” (The Government of the State of Sarawak, Malaysia, priority 2000, dated 2004).

What was measured:
[1] = tested on: SF268; assay: Cytotoxic activity, sub-diploid DNA content by flow cytometry (propidium iodide); type: cell-based, human; conditions: SF268, 6 days; read-out: LC50 (6 day cultures)
Procedure: (§1) (b) Compound A was assessed for cytotoxic and cytostatic activity against a panel of cell lines derived from a variety of human tumour types in addition to THP-1 and A549 cells (Table 5). These included K562 leukemic cells (Lozzio and Lozzio, 1975, Blood 45:321-34), PC3 prostate tumour cells (Kaighn et al., 1979, Invest. Urol. 17:16-23) and SF268 glioblastoma cells (Westphal et al, 1985, Biochem. Biophys. Res. Commun., 132:284-9). […] However, the cytotoxic potency of Compound A increased dramatically after 6 days of culture for the K562, A549 and SF268 cells.

[2] = tested on: THP-1; assay: as above; type: cell-based, human; conditions: THP-1, 6 days; read-out: LC50 (6 day cultures)
Procedure: as §1

[3] = tested on: K562; assay: as above; type: cell-based, human; conditions: K562, 6 days; read-out: LC50 (6 day cultures)
Procedure: as §1

[4] = tested on: PC3; assay: as above; type: cell-based, human; conditions: PC3, 6 days; read-out: LC50 (6 day cultures)
Procedure: as §1

[5] = tested on: A549; assay: as above; type: cell-based, human; conditions: A549, 6 days; read-out: LC50 (6 day cultures)
Procedure: as §1

[6] = tested on: THP-1 cells; assay: Protein synthesis, [14C]-leucine uptake, THP-1 cells; type: cell-based, human; conditions: 48 hours
Description: (§2) (a) Compounds A and B were identified from a bark sample of Aglaia leptantha through their ability to inhibit production of Tumour Necrosis Factor-α (TNF-α) by THP-1 human promonocytic leukemia cells (Tsuchiya, et al, Int. J. Cancer, 1980, 26(2):171-6) activated with lipopolysaccharide (LPS). Table 4 summarises the results comparing the activity of Compounds A and B for inhibition of TNF-α production to their effects on general cell metabolism measured using WST-1 reduction, DNA synthesis and protein synthesis assays for THP-1 cells. […] For comparison, the effects of Compounds A and B on A549 lung epithelial carcinoma cells (Leiber et al, Int. J. Cancer, 1976, 17(1)-62-70) were also measured and the data is also included in Table 4.

[7] = tested on: THP-1 cells; assay: WST-1 reduction by THP-1 cells; type: cell-based, human
Description: as §2

[8] = tested on: Tumour Necrosis Factor-α (TNF-α); assay: Inhibition of TNF-α production by LPS-activated THP-1 cells (sandwich ELISA); type: cell-based, human; conditions: 18 hours
Description: as §2

[9] = tested on: K562 leukemic cells; assay: DNA content analysis (cell cycle) of K562 leukemic cells; type: cell-based, human; conditions: K562, 10-15 nM, 3 days
Procedure: K562 cells were cultured for 3 days with the indicated concentration of Compounds A or B then collected and fixed in 70% ethanol prior to staining with propidium iodide and DNA content determined by flow cytometry. The numbers indicate the % of cells in G0/G1, S and G2/M phases of the cell cycle respectively relative to all cells with ≧2N DNA content.

[10] = tested on: THP-1 cells; assay: DNA synthesis, [14C]-thymidine uptake, THP-1 cells; type: cell-based, human; conditions: 48 hours
Description: as §2

[11] = tested on: A549 cells; assay: Protein synthesis, [14C]-leucine uptake, A549 cells; type: cell-based, human; conditions: 72 hours
Description: as §2

[12] = tested on: A549 cells; assay: DNA synthesis, [14C]-thymidine uptake, A549 cells; type: cell-based, human; conditions: 72 hours
Description: as §2

[13] = tested on: Intercellular Adhesion Molecule-1 (ICAM-1); assay: IL-1-induced ICAM-1 surface expression by A549 cells (Delfia); type: cell-based, human; conditions: 24 hours, read-out: IC50 ICAM-1 Production
Description: as §2

[14] = tested on: A549; assay: Cytostatic activity, relative cell number by YOYO-1 DNA dye; type: cell-based, human; conditions: Homo sapiens, 72 h; A549, lung; read-out: GI50 (3 day cultures)
Procedure: as §1

[15] = tested on: THP-1 cells; assay: Cell death as loss of membrane integrity, YOYO-1 uptake; type: cell-based; conditions: Homo sapiens, THP-1, 72 h, read-out: LC50
Description: (§3) (a) Table 8 compares the cytostatic and cytotoxic effects of Compound A to three previously identified 1H-cyclopenta[b]benzofuran lignans that lack the dioxanyloxy group at the C6-position. The reference compounds are: Rocaglaol (Reference Compound 1) (Ohse et al., J Nat Prod, 1996, 59(7):650-52); 4′-Demethoxy-3′,4′-methylenedioxyrocaglaol (Reference Compound 2) and Methyl 4′-demethoxy-3′,4′-methylenedioxyrocaglate (Reference Compound 3) (Lee et al., Chem Biol Interact, 1998, 115(3):215-28).

[16] = tested on: A549 cells; assay: as above; type: cell-based; conditions: Homo sapiens, A549, 72 h, read-out: LC50
Description: as §3

[17] = tested on: A549 cells; assay: Effect on cell cycle arrest and cell death induced by anti-cancer agents, DNA content analysis; type: cell-based; conditions: 3 days
Procedure: A549 cells in 6 well plates were cultured for 3 days in the presence or absence of 10 nM Compound A together with 0.1 μM camptothecin, 10 μM vinblastin, 1 μM paclitaxel or 1 μM staurosporine as indicated. The cells were then collected and fixed in 70% ethanol prior to staining with propidium iodide and DNA content determined by flow cytometry. The numbers indicate the % of cells in the various cell cycle phases relative to all cells with ≧2N DNA content and also the % dead cells (ie. subdiploid ≦2N cells) to the left of the dotted marker that arose during the culture period.
This was examined in more detail using DNA content analysis to specifically measure cell cycle progression and cell death. In this experiment in addition to camptothecin and paclitaxel cells were also treated with vinblastin (another microtubule inhibitor) (Sorger et al., 1997, supra) and staurosporine (a kinase inhibitor) (Gescher, Crit Rev Oncol Hematol., 2000, 34(2):127-35).

[18] = tested on: A549 cells; assay: Senescence-associated β-galactosidase (SA-β-gal) activity staining; type: cell-based, human; conditions: A549, 250 nM doxorubicin, 10 days
Procedure: A549 cells were seeded at 10,000 cell/well in 6 well plates in the presence or absence of varying concentrations of Compound A (10-50 nM) or 250 nM doxorubicin for 10 days prior to their processing and staining overnight for senescence-associated β-galactosidase activity as described previously (Dimri et al., 1995, Proc Natl Acad Sci USA 1995 92(20):9363-7). […] PC, phase contrast microscopy. BF, bright field microscopy Magnification×200.
This was evaluated further by measuring senescence-associated β-galactosidase (SA-β-gal) activity, a biomarker previously described to correlate well with senescence of human cells (Dimri et al., Proc Natl Acad Sci USA 1995 92(20):9363-7). […] Therefore, in addition to Compound A A549 cells were also treated with doxorubicin as an experimental control.

[19] = tested on: THP-1 cells; assay: DNA content analysis (cell cycle and viability) of THP-1 cells; type: cell-based, human; conditions: THP-1, 1000 nM paclitaxel, 2 days
Procedure: THP-1 cells were cultured for 2 days with the indicated concentration of Compound A or 1000 nM paclitaxel then collected and fixed in 70% ethanol prior to staining with propidium iodide and DNA content determined by flow cytometry. The numbers indicate the % of cells in the various cell cycle phases relative to all cells with ≧2N DNA content and also the % dead cells (ie. subdiploid≦2N cells) to the left of the marker (the vertical line) that arose during the culture period.

[20] = THP-1 leukemic cells, cultured with compound for 3 days, read-out: IC50 (reduction of WST-1)

COC(=O)[C@H]1[C@@H](O)[C@@]2(O)c3c(OC)cc(OC4OC(C(O)CO)COC4OC)cc3O[C@@]2(c2ccc(OC)cc2)[C@@H]1c1ccccc1 (single isomer, unassigned) [Compound B] was tested. Which CC50 [1] did it give?
The CC50 was 22 nM.

And the CC50 [2]?
Its CC50 is 15 nM.

What about the CC50 [3] of the same molecule?
The CC50 was 15 nM.

What about the CC50 [4] of the same molecule?
The CC50 was 12 nM.

What about the CC50 [5] of the same molecule?
The CC50 was 12 nM.

What about the IC50 [6] of the same molecule?
Its IC50 is 3 nM.

And the IC50 ([7]; THP-1 cells, 18 hours of culture, read-out: IC50 WST-1 Reduction)?
The IC50 was 40 nM.

And the IC50 [7, 20]?
Its IC50 is 1.5 nM.

What about the IC50 [8] of the same molecule?
The IC50 was 15 nM.

And the “cell cycle phase accumulation” value [9]?
Its value is “characteristic accumulation of cells in G2/M phases of the cell cycle”.

And the IC50 [10]?
The IC50 was 3 nM.

What about the IC50 [11] of the same molecule?
The IC50 was 10 nM.

What about the IC50 [12] of the same molecule?
Its IC50 is 4 nM.

What about the IC50 [13] of the same molecule?
Its IC50 is 5000 nM.

COC(=O)[C@H]1[C@@H](O)[C@@]2(O)c3c(OC)cc(OC4OC(C(COC(C)=O)OC(C)=O)COC4OC)cc3O[C@@]2(c2ccc(OC)cc2)[C@@H]1c1ccccc1 (stereo partly drawn) [Compound A′] was tested. Which IC50 [7, 20] did it give?
The IC50 was 0.3 nM.

For COC(=O)[C@H]1[C@@H](O)[C@@]2(O)c3c(OC)cc(OC4OC(C(COC(C)=O)OC(C)=O)COC4OC)cc3O[C@@]2(c2ccc(OC)cc2)[C@@H]1c1ccccc1 (stereo partly drawn) [Compound B′], which IC50 [7, 20] is on record?
The IC50 was 0.7 nM.

Which results are given for COc1ccc(C23Oc4cc(OC)cc(OC)c4C2(O)C(O)CC3c2ccccc2)cc1 (stereo not drawn) [Reference Compound 1, Rocaglaol]?
GI50 [14]: 3980 nM; CC50 [15]: > 5000 nM; CC50 [16]: > 5000 nM

For COc1cc(OC)c2c(c1)OC1(c3ccc4c(c3)OCO4)C(c3ccccc3)CC(O)C21O (stereo not drawn) [Reference Compound 2, 4′-Demethoxy-3′,4′-methylenedioxyrocaglaol], which GI50 [14] is on record?
Its GI50 is 389 nM.

And the CC50 [15]?
The CC50 was over 5000 nM.

What about the CC50 [16] of the same molecule?
Its CC50 is over 5000 nM.

What does the source list for COC(=O)C1C(O)C2(O)c3c(OC)cc(OC)cc3OC2(c2ccc3c(c2)OCO3)C1c1ccccc1 (stereo not drawn) [Reference Compound 3, Methyl 4′-demethoxy-3′,4′-methylenedioxyrocaglate]?
GI50 [14]: 56 nM; CC50 [15]: > 5000 nM; CC50 [16]: > 5000 nM

With CC[C@@]1(O)C(=O)OCc2c1cc1n(c2=O)Cc2cc3ccccc3nc2-1 [camptothecin, reference compound] as the molecule, how does the “cell cycle phase accumulation” value ([17]; A549, 0.1 μM camptothecin) read?
The value was “accumulation of cells in S phase of the cell cycle”.

COc1cccc2c1C(=O)c1c(O)c3c(c(O)c1C2=O)C[C@@](O)(C(=O)CO)C[C@@H]3O[C@H]1C[C@H](N)[C@H](O)[C@H](C)O1 [doxorubicin, reference compound] was tested. Which SA-β-gal activity [18] did it give?
Its SA-β-gal activity is “exhibited SA-β-gal activity”.

How did the “cell cycle phase accumulation” value [19] turn out when CC(=O)O[C@H]1C(=O)[C@@]2(C)[C@H]([C@H](OC(=O)c3ccccc3)[C@]3(O)C[C@H](OC(=O)[C@H](O)[C@@H](NC(=O)c4ccccc4)c4ccccc4)C(C)=C1C3(C)C)[C@]1(OC(C)=O)CO[C@@H]1C[C@@H]2O [paclitaxel, reference compound] was run?
The value was “caused cells to accumulate in the G2/M phases of the cell cycle”.

And the “cell cycle phase accumulation” value ([17]; A549, 1 μM paclitaxel)?
Its value is “majority of cells arresting in the G2/M phases of the cell cycle”.

For CC[C@]1(O)C[C@@H]2CN(CCc3c([nH]c4ccccc34)[C@@](C(=O)OC)(c3cc4c(cc3OC)N(C)[C@H]3[C@@](O)(C(=O)OC)[C@H](OC(C)=O)[C@]5(CC)C=CCN6CC[C@]43[C@@H]65)C2)C1 [vinblastin, reference compound], which “cell cycle phase accumulation” value ([17]; A549, 10 μM vinblastin) is on record?
The value was “majority of cells arresting in the G2/M phases of the cell cycle”.
